Assay results reported in patent US8440442B2, “Method of assaying 5-FU” (Myriad Genetics, Inc, priority 2009, dated 2013).

How the values were obtained:
[1] = biological target: T1, dihydropyrimidine dehydrogenase (DPD) (Homo sapiens, UniProt Q12882); assay: Low concentrations of gimeracil in 5-FU spiked blood, plasma 5-FU initial and after 24 hr; assay type: biochemical; details: for 5-FU concentration, Initial / 5-FU concentration, 24 hr: blood spiked 500 ng/mL 5-FU; for 5-FU concentration, Initial: after plasma collection; for 5-FU concentration, 24 hr: plasma 24 hours at room temperature
T1 construct: from tissue; host or cells: donor whole blood (K2EDTA), plasma separated from it, and WBC/buffy coat
T1 sequence (Q12882 4-1025): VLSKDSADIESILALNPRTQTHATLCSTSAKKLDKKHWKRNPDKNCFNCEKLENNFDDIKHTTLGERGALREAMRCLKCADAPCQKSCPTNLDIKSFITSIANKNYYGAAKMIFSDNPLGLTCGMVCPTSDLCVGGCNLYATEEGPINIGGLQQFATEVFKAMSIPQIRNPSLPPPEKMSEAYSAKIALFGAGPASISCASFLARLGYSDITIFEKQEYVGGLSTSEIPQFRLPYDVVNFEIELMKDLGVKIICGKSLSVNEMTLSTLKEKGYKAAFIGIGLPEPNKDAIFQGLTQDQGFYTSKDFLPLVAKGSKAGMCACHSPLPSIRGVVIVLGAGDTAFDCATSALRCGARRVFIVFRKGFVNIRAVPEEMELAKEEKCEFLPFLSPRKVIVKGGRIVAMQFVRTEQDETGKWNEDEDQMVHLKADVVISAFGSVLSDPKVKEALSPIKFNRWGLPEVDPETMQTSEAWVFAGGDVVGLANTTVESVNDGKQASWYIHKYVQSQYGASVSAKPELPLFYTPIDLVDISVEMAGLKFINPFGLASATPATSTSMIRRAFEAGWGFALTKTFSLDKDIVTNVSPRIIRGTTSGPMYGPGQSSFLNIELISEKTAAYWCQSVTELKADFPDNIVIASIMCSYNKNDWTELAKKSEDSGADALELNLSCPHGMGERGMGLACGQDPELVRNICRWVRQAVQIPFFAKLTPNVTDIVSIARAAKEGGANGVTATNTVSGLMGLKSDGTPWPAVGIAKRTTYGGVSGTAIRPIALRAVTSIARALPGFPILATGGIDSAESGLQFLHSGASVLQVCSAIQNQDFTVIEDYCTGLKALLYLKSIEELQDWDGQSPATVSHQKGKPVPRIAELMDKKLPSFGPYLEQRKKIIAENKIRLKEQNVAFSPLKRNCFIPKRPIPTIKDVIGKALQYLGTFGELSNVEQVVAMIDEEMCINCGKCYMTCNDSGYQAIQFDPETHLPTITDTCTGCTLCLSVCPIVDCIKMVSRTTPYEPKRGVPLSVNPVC
Procedure: (§1) In the following illustrative examples, 5-FU was measured using an antibody-based agglutination assay on the Olympus AU680 Analyzer using an antibody disclosed in U.S. Pat. No. 7,205,116. Specifically, the concentration of 5-FU in a sample is determined based on the absorbance of a sample, which is determined by the amount of aggregation by the nanoparticles. The system requires two reagents, which when mixed in the absence of free 5-FU will form large aggregates of nanoparticles and scatter light to result in a higher absorption value. In the presence of free 5-FU, the agglutination reaction becomes somewhat inhibited and scattering of light is less, causing a lower absorption value. The instrument is calibrated twice monthly, and a curve is generated (Absorbance vs. 5-FU concentration). Absorbance values from individual samples are compared against this curve to determine concentration.
(§2) Generally in the agglutination assay, 95 μl of a buffer containing 5-FU-labeled amino-dextran is pipetted to a cuvette, followed by 7 μL of a filtered plasma sample. The sample and reagent are mixed and then incubated for about 3.5 minutes. 95 μl of 5-FU antibody-conjugated nanoparticles is pipetted into the cuvette and mixed. The complete reaction incubates for about 6.2 minutes. A series of 27 measurements at 600 nm are taken at regular intervals by the AU680 analyzer throughout this process, and 5-FU concentration is calculated using the measurements from two specific time points.
Four tubes of blood (spray-on K2EDTA tubes, 10 mL) was drawn from each of five donors, and gently inverted several times to mix anti-coagulant. Blood was pooled by donor into conical tubes. An aliquot of each donor's blood was transferred to a clean tube. A calculated volume of 5-FU stock (at 200 ng/μL) was added to each blood sample to achieve a final concentration of 500 ng/mL 5-FU, and tubes were inverted to mix. Spiked blood was aliquotted into clean tubes, nine tubes per donor and 3.5 mL of blood per tube. Gimeracil was added to the tubes at a final concentration of 200, 400, or 600 ng/mL for each tube. In addition, in control samples, methanol was added to the blood instead of gimeracil, in order to serve as a negative control. The blood tubes sat at room temperature for 45 minutes after the addition of the gimeracil or methanol. At the appropriate times, the blood tubes were centrifuged at 2000×g for 10 minutes at room temperature to separate plasma. Plasma was aspirated immediately after centrifugation, and the plasma was dispensed into clean tubes. Plasma samples were run using standard conditions for Olympus AU680 analyzer (200 μL, spin for 15 minutes at 12,500 rpm). Measurements of 5-FU concentration were taken after plasma collection (“initial”) and 24 hours (“24 hr”) thereafter. For the 24 hr measurement, plasma was stored at room temperature during the 24 hours. As shown in Table 2 and FIG. 4, low concentrations of gimeracil in blood is also effective at inhibiting DPD-mediated degradation of 5-FU. The overall percent difference in 5-FU concentration between the samples containing 200 ng/mL and 600 ng/mL gimeracil is less than 1%.

[2] = biological target: T1, dihydropyrimidine dehydrogenase (DPD); assay: Extended incubation of gimeracil in blood before plasma separation; assay type: biochemical; details: gimeracil 1200 ng/mL; for 5-FU Concentration 24 hrs after plasma separation / 5-FU Concentration Upon plasma separation: 500 ng/mL 5-FU
Procedure: as §1, §2
Six tubes of blood (spray-on K2EDTA tubes, 6 mL) was drawn from each of six donors, and the blood tubes were inverted several times to mix the anti-coagulant into the blood. Blood tubes were pooled and kept separate by donor. An aliquot of each donor's blood was transferred to a new tube, and a calculated volume of 5-FU stock (at 200 ng/μL) was added to each blood sample to achieve a final concentration of 500 ng/mL 5-FU. Spiked blood samples were aliquotted to clean tubes, 4 mL of blood to each of 8 tubes per donor. Gimeracil in methanol solvent was added to the blood tubes to reach a final concentration of 1200 ng/mL. For negative control, methanol only is added to the control blood tube. Blood tubes sat at room temperature for 45 minutes, 24 hours, or 48 hours before plasma separation. At the appropriate times, the blood tubes were centrifuged at 2000×g for 10 minutes at room temperature for plasma separation. The plasma was aspirated immediately after centrifugation and dispensed into clean cryovials. For 5-FU assays, the plasma samples were run under standard conditions for the Olympus AU680 analyzer, as described above (200 μL, spin for 15 minutes at 12,500 rpm). Measurements of 5-FU concentration were taken after plasma collection and for 2 days following the initial reading. Plasma was stored at room temperature during the interval.

overall percent difference in 5-FU concentration between samples containing 200 ng/mL and 600 ng/mL gimeracil ([1]; 500 ng/mL 5-FU spiked blood): less than 1%
5-FU concentration, Initial ([1]; gimeracil 200 ng/mL): 518.7
5-FU concentration, 24 hr ([1]; gimeracil 200 ng/mL): 523.4
5-FU concentration, Initial ([1]; gimeracil 400 ng/mL): 523.0
5-FU concentration, 24 hr ([1]; gimeracil 400 ng/mL): 521.6
5-FU concentration, Initial ([1]; gimeracil 600 ng/mL): 519.5
5-FU concentration, 24 hr ([1]; gimeracil 600 ng/mL): 523.3
inhibiting DPD-mediated degradation of 5-FU ([1]; low concentrations of gimeracil in blood (200, 400, 600 ng/mL), Table 2 and FIG. 4): effective
5-FU Concentration 24 hrs after plasma separation ([2]; 45 minute incubation in blood): 538.1 ng/mL
5-FU Concentration Upon plasma separation ([2]; 45 minute incubation in blood): 533.3 ng/mL
5-FU Concentration 24 hrs after plasma separation ([2]; 24 hours incubation in blood): 551.9 ng/mL
5-FU Concentration Upon plasma separation ([2]; 24 hours incubation in blood): 551.8 ng/mL
5-FU Concentration 24 hrs after plasma separation ([2]; 48 hours incubation in blood): 578.4 ng/mL
5-FU Concentration Upon plasma separation ([2]; 48 hours incubation in blood): 581.3 ng/mL
SMILES: Oc1cc(O)c(Cl)cn1 [Gimeracil, 5-chloro-2,4-dihydroxypyridine]
effect of keeping gimeracil in blood without plasma separation for a longer time ([2]; 24 or 48 hours in blood (FIG. 5)): may cause 5-FU concentration to artificially increase
